Biological target: RET G810R (Homo sapiens (Human), UniProt P07949, G810R)
Assay: HTRF KinEASE-TK kinase activity test, RET G810R
Details: for IC50: read-out: RET G810R IC50, HTRF kinase assay; for inhibitory activity against RET G810R relative to that of selpercatinib (LOXO-292): fold versus selpercatinib (LOXO-292)

Sequence of RET G810R (P07949 29-1114 G810R): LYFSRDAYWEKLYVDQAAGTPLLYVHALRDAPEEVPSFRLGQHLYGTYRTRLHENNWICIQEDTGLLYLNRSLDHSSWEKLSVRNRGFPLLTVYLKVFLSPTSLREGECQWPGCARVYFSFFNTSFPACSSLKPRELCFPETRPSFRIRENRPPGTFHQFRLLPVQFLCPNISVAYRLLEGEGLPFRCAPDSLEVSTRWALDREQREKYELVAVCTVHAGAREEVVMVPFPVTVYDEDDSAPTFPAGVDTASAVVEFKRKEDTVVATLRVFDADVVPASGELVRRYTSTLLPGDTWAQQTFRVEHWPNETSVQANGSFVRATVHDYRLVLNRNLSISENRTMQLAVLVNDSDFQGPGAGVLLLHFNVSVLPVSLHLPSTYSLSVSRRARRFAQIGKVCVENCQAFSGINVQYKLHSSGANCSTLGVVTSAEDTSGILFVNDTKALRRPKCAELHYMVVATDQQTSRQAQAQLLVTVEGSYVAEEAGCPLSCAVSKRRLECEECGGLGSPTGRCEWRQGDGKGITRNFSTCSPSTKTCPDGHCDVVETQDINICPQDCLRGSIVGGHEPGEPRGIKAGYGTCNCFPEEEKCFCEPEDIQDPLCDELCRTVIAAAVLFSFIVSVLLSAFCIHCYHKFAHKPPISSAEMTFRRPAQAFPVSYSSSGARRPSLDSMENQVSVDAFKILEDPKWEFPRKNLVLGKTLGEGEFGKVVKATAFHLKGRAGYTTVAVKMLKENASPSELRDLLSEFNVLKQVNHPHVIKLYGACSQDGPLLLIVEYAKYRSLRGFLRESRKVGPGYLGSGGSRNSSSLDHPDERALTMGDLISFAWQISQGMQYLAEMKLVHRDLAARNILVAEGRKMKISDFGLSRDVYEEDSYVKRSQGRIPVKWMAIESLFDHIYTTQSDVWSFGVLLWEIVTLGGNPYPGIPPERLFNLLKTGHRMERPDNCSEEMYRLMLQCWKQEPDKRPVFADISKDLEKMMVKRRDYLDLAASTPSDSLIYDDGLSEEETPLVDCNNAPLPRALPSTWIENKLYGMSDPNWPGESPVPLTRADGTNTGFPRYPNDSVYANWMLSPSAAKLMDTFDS

Row | Structure (SMILES) | IC50 [nM] | inhibitory activity against RET G810R relative to that of selpercatinib (LOXO-292) [times]
1 | CCOc1cc(-c2ccc(N3CCC(C)(NC(=O)c4cc(F)ccc4C)CC3)nc2)c2c3cn[nH]c3nn2c1 [Compound 1, N-(1-(5-(6-ethoxy-1H-pyrazolo[3′,4′:3,4]pyrazolo[1,5-α]pyridin-4-yl)pyridin-2-yl)-4-methylpiperidin-4-yl)-5-fluoro-2-methylbenzamide] | 6.5 | –
2 | CCOc1cc(-c2ccc(N3CCC(Oc4ccc(OC)nn4)CC3)nc2)c2c3cn[nH]c3nn2c1 [Compound 8] | 8.7 | –
3 | CCOc1cc(-c2ccc(N3CCC(CO)(NC(=O)c4ncccc4Cl)CC3)nc2)c2c3cn[nH]c3nn2c1 [Compound 12, 3-chloro-N-(1-(5-(6-ethoxy-1H-pyrazolo[3′,4′:3,4]pyrazolo[1,5-α]pyridin-4-yl)pyridin-2-yl)-4-(hydroxymethyl)piperidin-4-yl)picolinamide] | 2.1 | ≥ 10
4 | CCOc1cc(-c2ccc(N3CCC(CN(C)C)(NC(=O)c4ncccc4Cl)CC3)nc2)c2c3cn[nH]c3nn2c1 [Compound 15, 3-chloro-N-(4-((2-dimethylamino)methyl)-1-(5-(6-ethoxy-1H-pyrazolo[3′,4′:3,4]pyrazolo[1,5-α]pyridin-4-yl)pyridin-2-yl)piperidin-4-yl)picolinamide] | 1.5 | ≥ 10
5 | CCOc1cc(-c2ccc(N3CCC(CN4CCN(CC)CC4)(NC(=O)c4cc(F)ccc4F)CC3)nc2)c2c3cn[nH]c3nn2c1 [Compound 17, N-(1-(5-(6-ethoxy-1H-pyrazolo[3′,4′:3,4]pyrazolo[1,5-α]pyridin-4-yl)pyridin-2-yl)-4-((4-ethylpiperazin-1-yl)methyl)piperidin-4-yl)-2,5-difluorobenzamide] | 2.1 | ≥ 10
6 | CCOc1cc(-c2ccc(N3CCC(CN4CCOCC4)(NC(=O)CC(C)C)CC3)nc2)c2c3cn[nH]c3nn2c1 [Compound 29] | 8.8 | –
7 | CCOc1cc(-c2ccc(N3CCC(C)(S(=O)(=O)CC(C)C)CC3)nc2)c2c3cn[nH]c3nn2c1 [Compound 33, 6-ethoxy-4-(6-(4-(isobutylsulfonyl)-4-methylpiperidin-1-yl)pyridin-3-yl)-1H-pyrazolo[3′,4′:3,4]p yrazolo[1,5-α]pyridine] | 2.5 | ≥ 10
8 | CCOc1cc(-c2ccc(N3CCC(S(=O)(=O)Cc4ccccc4)CC3)nc2)c2c3cn[nH]c3nn2c1 [Compound 34] | 4.9 | –
9 | CCOc1cc(-c2ccc(N3CCC(CN(C)C)(C(=O)NCC(C)C)CC3)nc2)c2c3cn[nH]c3nn2c1 [Compound 35, 4-((dimethylamino)methyl)-1-(5-(6-ethoxy-1H-pyrazolo[3′,4′:3,4]pyrazolo[1,5-α]pyridin-4-yl)pyridin-2-yl)-N-isobutylpiperidine-4-carboxamide] | 5.1 | –
10 | CCOc1cc(-c2ccc(N3CCC(CN4CCC4)(C(=O)NCC(C)C)CC3)nc2)c2c3cn[nH]c3nn2c1 [Compound 36, 4-(azetidin-1-ylmethyl)-1-(5-(6-ethoxy-1H-pyrazolo[3′,4′:3,4]pyrazolo[1,5-α]pyridin-4-yl)pyridin-2-yl)-N-isobutylpiperidine-4-carboxamide] | 5.7 | –
11 | CCOc1cc(-c2ccc(N3CCC(CN4CCCC4)(C(=O)NCC(C)C)CC3)nc2)c2c3cn[nH]c3nn2c1 [Compound 37, 4-(pyrrolidin-1-ylmethyl)-1-(5-(6-ethoxy-1H-pyrazolo[3′,4′:3,4]pyrazolo[1,5-α]pyridin-4-yl)pyridin-2-yl)-N-isobutylpiperidine-4-carboxamide] | 6.3 | –
12 | CCOc1cc(-c2ccc(N3CC[C@H](NC(=O)c4cc(F)ccc4Cl)[C@@H](O)C3)nc2)c2c3cn[nH]c3nn2c1 [Compound 43] | 1.9 | ≥ 10
13 | CCOc1cc(-c2ccc(N3CC[C@H](NC(=O)c4ncccc4C(F)(F)F)[C@@H](O)C3)nc2)c2c3cn[nH]c3nn2c1 [Compound 45] | 5.2 | –

Source: patent US20240174674A1, “NITROGEN-CONTAINING POLYCYCLIC FUSED RING COMPOUND, PHARMACEUTICAL COMPOSITION THEREOF, PREPARATION METHOD THEREFOR, AND USE THEREOF” (APPLIED PHARMACEUTICAL SCIENCE, INC., priority 2021, published 2024)
